Assay results reported in patent EP4772186A1, “USE AND COMPOSITION OF POSTBIOTIC OF LACTOBACILLUS PARACASEI ET-22” (Inner Mongolia Yili Industrial Group Co., Ltd., priority 2023, dated 2025).

What was measured:
biofilm = test: confocal laser scanning microscopy (CLSM) of biofilm thickness; assay type: cell-based, halitosis subjects (saliva)
Experimental: Lysate group: A HA disc was placed in a 96-well plate. 10 µl of saliva was added to the 96-well plate, followed by separate addition of ET-22 viable bacteria (1.0×10^9 CFU/ml), ET-22 heat-inactivated bacterial cells (obtained by inactivating viable bacteria at 1.0×10^9 CFU/ml), and lysate (obtained by inactivating and filtering viable bacteria at 1.0×10^9 CFU/ml), each at 10 µl. Then, 80 µl of SHI medium was added. The 96-well plate was placed in an anaerobic box and cultured anaerobically at 37°C for 10 hours.
NAD group: A HA disc was placed in a 96-well plate. 10 µl of saliva was added to the 96-well plate, followed by separate addition of ET-22 viable bacteria (1.0×10^9 CFU/ml), ET-22 heat-inactivated bacterial cells (obtained by heat-inactivating viable bacteria at 1.0×10^9 CFU/ml), and NAD (100 µg/ml), each at 10 µl. Then, 80 µl of SHI medium was added. The 96-well plate was placed in an anaerobic box and cultured anaerobically at 37°C for 10 hours.
2-hydroxy-3-phenylpropionic acid group: A HA disc was placed in a 96-well plate. 10 µl of saliva was added to the 96-well plate, followed by separate addition of ET-22 viable bacteria (1.0×10^9 CFU/ml), ET-22 heat-inactivated bacterial cells (obtained by heat-inactivating viable bacteria at 1.0×10^9 CFU/ml), and 2-hydroxy-3-phenylpropionic acid (100 µg/ml), each at 10 µl. Then, 80 µl of SHI medium was added. […]

fadA = test: RT-PCR of virulence factors in multi-species biofilm; assay type: cell-based, Fusobacterium nucleatum; settings: relative to ET-22 viable bacteria (ET22-L) and ET-22 heat-inactivated bacteria (ET22-HK)
Experimental: 100 µl of saliva was added to a 24-well plate, then 100 µl of the corresponding concentration solution was added respectively to the experimental groups, and finally 800 µl of SHI medium was added. The plate was placed in an anaerobic box and cultured anaerobically at 37°C for 10 hours. Then, the supernatant was discarded, and the multi-species biofilm adhered to the well plate was obtained. After discarding the supernatant from the incubated biofilm, the biofilm adhered to the bottom of the well plate was re-suspended with sterile water by pipetting, transferred to a 1.5 ml centrifuge tube, and stored until gene sequencing was performed.
This example evaluated the effects of lysate, NAD, 2-hydroxy-3-phenylpropionic acid, polypeptide GP(Hyp)GAG, and peptidoglycan on halitosis virulence factors, including cdl, fadA, mgl, and gtfb. The gene cdl can regulate the expression of L-cysteine […], which can catalyze the degradation of protein substrate to produce VSC, thereby causing halitosis. Fusobacterium nucleatum secretes an amyloid-like adhesin (fadA) via the fap2-like autotransporter protein to enhance its virulence. […]
After the sample RNA was reverse-transcribing into cDNA, RT-PCR reaction was performed to detect biofilm-related virulence factors. Experimental results were calculated using the 2^-△△CT method. […]

## O=C(O)C(O)Cc1ccccc1 (stereo not drawn) [2-hydroxy-3-phenylpropionic acid]
biofilm; compared with CK group, HA disc, pure components 100 µg/ml, others from 1.0×10^9 CFU/ml, 37°C 10 hours
  biofilm thickness: significantly reduce the biofilm thickness
biofilm; relative to ET-22 viable bacteria and ET-22 heat-inactivated bacteria
  intervention effect on biofilm thickness: superior
fadA
  inhibitory effect on the expression of virulence factor fadA: better
